Literature values, collected in US20250325256A1, “LIPID PATCH” (SENSACH AB, priority 2021, published 2025).

Settings: cited from earlier work

For `CCCCCCCC/C=C\CCCCCCCC(=O)OCC(O)CO` (stereo not shown) [GMO, Glycerol monooleate], the solubility in water is listed as “around 10^−6 M”.
